Each compound was assayed against T1, Recombinant human HSD17B13 enzyme (Homo sapiens, UniProt Q7Z5P4) (assay: HSD17b13 NAD(P)H-Glo biochemical assay). Settings: 50 uM estradiol, 1 mM NAD+, NAD(P)H-Glo luminescence; read-out: HSD17β13 IC50.
T1 sequence (Q7Z5P4 20-300): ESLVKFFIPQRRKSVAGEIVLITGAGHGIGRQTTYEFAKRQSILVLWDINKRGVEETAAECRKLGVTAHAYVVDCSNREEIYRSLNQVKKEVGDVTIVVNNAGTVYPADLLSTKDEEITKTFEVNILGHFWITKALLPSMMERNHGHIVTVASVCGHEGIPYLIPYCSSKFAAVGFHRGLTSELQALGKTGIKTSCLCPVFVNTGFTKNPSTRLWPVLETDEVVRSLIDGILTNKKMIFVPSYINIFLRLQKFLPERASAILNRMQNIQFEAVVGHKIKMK
Summary of the method: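 Luminescent NAD(P)H-Glo read-out, taken after 1 hour at RT, measured cofactor reduction. Substrate and cofactor were estradiol at 50 uM and NAD+ at 1 mM final, reacted with the recombinant human enzyme for 3 hours at 37° C in 20 mM Tris pH7.4, 0.002% Tween-20, 0.02% BSA. Compound was pre-incubated with enzyme for 20 minutes at RT.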

SMILES	IC50 [nM]
CC(C)N1CCN(c2cc3c(cn2)c(-c2cc(C(F)(F)F)c(F)c(O)c2F)nn3C)CC1=O [Compound 9.63, 4-(3-(2,4-Difluoro-3-hydroxy-5-(trifluoromethyl)phenyl)-1-methyl-1H-pyrazolo[4,3-c]pyridin-6-yl)-1-isopropylpiperazin-2-one]	< 100
CN(CC1CCOCC1)c1cc2c(cn1)c(-c1cc(C(F)(F)F)c(F)c(O)c1F)nn2C [Compound 9.64, 2,6-Difluoro-3-(1-methyl-6-(methyl((tetrahydro-2H-pyran-4-yl)methyl)amino)-1H-pyrazolo[4,3-c]pyridin-3-yl)-5-(trifluoromethyl)phenol]	< 100
CN(C)C(=O)C1CN(c2cc3c(cn2)c(-c2cc(C(F)(F)F)c(F)c(O)c2F)nn3C)CCO1 (stereo not shown) [Compound 9.65, 4-(3-(2,4-Difluoro-3-hydroxy-5-(trifluoromethyl)phenyl)-1-methyl-1H-pyrazolo[4,3-c]pyridin-6-yl)-N,N-dimethylmorpholine-2-carboxamide]	100 to 1000
CC(=O)N1CCC(N(C)c2cc3c(cn2)c(-c2cc(C(F)(F)F)c(F)c(O)c2F)nn3C)CC1 [Compound 9.66, 1-(4-((3-(2,4-Difluoro-3-hydroxy-5-(trifluoromethyl)phenyl)-1-methyl-1H-pyrazolo[4,3-c]pyridin-6-yl)(methyl)amino)piperidin-1-yl)ethanone]	< 100
CN1CCN(c2cc3c(cn2)c(-c2cc(C(F)(F)F)c(F)c(O)c2F)nn3C)CC1=O [Compound 9.68, 4-(3-(2,4-Difluoro-3-hydroxy-5-(trifluoromethyl)phenyl)-1-methyl-1H-pyrazolo[4,3-c]pyridin-6-yl)-1-methylpiperazin-2-one]	< 100
Cn1nc(-c2cc(C(F)(F)F)c(F)c(O)c2F)c2cnc(N3CCCOCC34CC4)cc21 [Compound 9.69, 2,6-Difluoro-3-(1-methyl-6-(8-oxa-4-azaspiro[2.6]nonan-4-yl)-1H-pyrazolo[4,3-c]pyridin-3-yl)-5-(trifluoromethyl)phenol]	< 100
Oc1c(F)c(-c2nn(C3CCCOC3)c3nc(N4CCOCC45CC5)ccc23)cc(C(F)(F)F)c1F (stereo not shown) [Compound 9.71, 3-(6-(7-Oxa-4-azaspiro[2.5]octan-4-yl)-1-(tetrahydro-2H-pyran-3-yl)-1H-pyrazolo[3,4-b]pyridin-3-yl)-2,6-difluoro-5-(trifluoromethyl)phenol]	100 to 1000
COCCn1nc(-c2cc(C(F)(F)F)c(F)c(O)c2F)c2ccc(N3CCOCC34CC4)nc21 [Compound 9.72, 2,6-Difluoro-3-(1-(2-methoxyethyl)-6-(7-oxa-4-azaspiro[2.5]octan-4-yl)-1H-pyrazolo[3,4-b]pyridin-3-yl)-5-(trifluoromethyl)phenol]	< 100
COCCn1nc(-c2cc(C(F)(F)F)c(F)c(O)c2F)c2cnc(N3CCOCC34CC4)cc21 [Compound 9.73, 2,6-Difluoro-3-(1-(2-methoxyethyl)-6-(7-oxa-4-azaspiro[2.5]octan-4-yl)-1H-pyrazolo[4,3-c]pyridin-3-yl)-5-(trifluoromethyl)phenol]	< 100
COC1CCN(c2cc3c(cn2)c(-c2cc(C(F)(F)F)c(F)c(O)c2F)nn3C)C2(CCC2)C1 (stereo not shown) [Compound 9.75, 2,6-Difluoro-3-(6-(8-methoxy-5-azaspiro[3.5]nonan-5-yl)-1-methyl-1H-pyrazolo[4,3-c]pyridin-3-yl)-5-(trifluoromethyl)phenol]	< 100
Cn1nc(-c2cc(C(F)(F)F)c(F)c(O)c2F)c2cnc(N3CCOC4(CCC4)C3)cc21 [Compound 9.78, 2,6-Difluoro-3-(1-methyl-6-(5-oxa-8-azaspiro[3.5]nonan-8-yl)-1H-pyrazolo[4,3-c]pyridin-3-yl)-5-(trifluoromethyl)phenol]	< 100
Cn1nc(-c2cc(C(F)(F)F)c(F)c(O)c2F)c2cnc(N3CCN(C(=O)O)C(=O)C3)cc21 [Compound 9.79, 4-(3-(2,4-Difluoro-3-hydroxy-5-(trifluoromethyl)phenyl)-1-methyl-1H-pyrazolo[4,3-c]pyridin-6-yl)-2-oxopiperazine-1-carboxylic acid]	1000 to 30000
CNC(=O)C1CN(c2cc3c(cn2)c(-c2cc(C(F)(F)F)c(F)c(O)c2F)nn3C)CCO1 (stereo not shown) [Compound 9.80, 4-(3-(2,4-Difluoro-3-hydroxy-5-(trifluoromethyl)phenyl)-1-methyl-1H-pyrazolo[4,3-c]pyridin-6-yl)-N-methylmorpholine-2-carboxamide]	< 100
Cn1nc(-c2cc(C(F)(F)F)c(F)c(O)c2F)c2cc(F)c(N3CCOCC34CC4)nc21 [Compound 9.81, 2,6-Difluoro-3-(5-fluoro-1-methyl-6-(7-oxa-4-azaspiro[2.5]octan-4-yl)-1H-pyrazolo[3,4-b]pyridin-3-yl)-5-(trifluoromethyl)phenol]	< 100
COC1CCN(c2cc3c(cn2)c(-c2cc(C(F)(F)F)c(F)c(O)c2F)nn3C)C2(CC2)C1 (stereo not shown) [Compound 9.83, 2,6-Difluoro-3-(6-(7-methoxy-4-azaspiro[2.5]octan-4-yl)-1-methyl-1H-pyrazolo[4,3-c]pyridin-3-yl)-5-(trifluoromethyl)phenol]	< 100

The next lines start with the values.

IC50 [nM]	SMILES
< 100	Cn1nc(-c2cc(C(F)(F)F)c(F)c(O)c2F)c2cnc(N3CCOCC3C3CCC3)cc21 (stereo not shown) [Compound 9.67, 3-(6-(3-Cyclobutylmorpholino)-1-methyl-1H-pyrazolo[4,3-c]pyridin-3-yl)-2,6-difluoro-5-(trifluoromethyl)phenol]
< 100	Cn1nc(-c2cc(C(F)(F)F)c(F)c(O)c2F)c2cnc(N3CCOCCC34CC4)cc21 [Compound 9.70, 2,6-Difluoro-3-(1-methyl-6-(7-oxa-4-azaspiro[2.6]nonan-4-yl)-1H-pyrazolo[4,3-c]pyridin-3-yl)-5-(trifluoromethyl)phenol]
< 100	Cn1nc(-c2cc(C(F)(F)F)c(F)c(O)c2F)c2cnc(N3CCN(S(C)(=O)=O)CC34CC4)cc21 [Compound 9.74, 2,6-Difluoro-3-(1-methyl-6-(7-(methylsulfonyl)-4,7-diazaspiro[2.5]octan-4-yl)-1H-pyrazolo[4,3-c]pyridin-3-yl)-5-(trifluoromethyl)phenol]
< 100	Cn1nc(-c2cc(C(F)(F)F)c(F)c(O)c2F)c2cnc(N3CCOCC3C3CCOCC3)cc21 (stereo not shown) [Compound 9.76, 2,6-Difluoro-3-(1-methyl-6-(3-(tetrahydro-2H-pyran-4-yl)morpholino)-1H-pyrazolo[4,3-c]pyridin-3-yl)-5-(trifluoromethyl)phenol]
< 100	COCC1CN(c2cc3c(cn2)c(-c2cc(C(F)(F)F)c(F)c(O)c2F)nn3C)CCO1 (stereo not shown) [Compound 9.77, 2,6-Difluoro-3-(6-(2-(methoxymethyl)morpholino)-1-methyl-1H-pyrazolo[4,3-c]pyridin-3-yl)-5-(trifluoromethyl)phenol]
< 100	Cn1nc(-c2cc(C(F)(F)F)c(F)c(O)c2F)c2cnc(N3CCOC4(CCOCC4)C3)cc21 [Compound 9.82, 2,6-Difluoro-3-(1-methyl-6-(1,9-dioxa-4-azaspiro [5.5]undecan-4-yl)-1H-pyrazolo[4,3-c]pyridin-3-yl)-5-(trifluoromethyl)phenol]
< 100	Cn1nc(-c2cc(C(F)(F)F)c(F)c(O)c2F)c2cnc(N3CCOCC34CCCC4)cc21 [Compound 9.84, 2,6-Difluoro-3-(1-methyl-6-(9-oxa-6-azaspiro[4.5]decan-6-yl)-1H-pyrazolo[4,3-c]pyridin-3-yl)-5-(trifluoromethyl)phenol]
